Measured values taken from publication PMC5218480 (PLoS ONE, 2017).

Tested on: MV-4-11 cells
Experiment: Gene expression microarray analysis (Affymetrix PrimeView) and GSEA
Type: cell-based, human
Parameters: RFU PODN (11730768_x_at) / Fold change /veh PODN (11730768_x_at) / RFU LINC00158 (11744669_a_at) / Fold change /veh LINC00158 (11744669_a_at) / RFU DUSP10 (11751237_a_at) / Fold change /veh DUSP10 (11751237_a_at) / RFU ID3 (11757404_x_at) / Fold change /veh ID3 (11757404_x_at) / RFU PLEKHG5 (11737974_s_at) / Fold change /veh PLEKHG5 (11737974_s_at) / RFU LRRC4B (11730491_at) / Fold change /veh LRRC4B (11730491_at) / RFU GIMAP4 (11747438_a_at) / Fold change /veh GIMAP4 (11747438_a_at) / RFU KRT8 (11758183_x_at) / Fold change /veh KRT8 (11758183_x_at) / RFU CNN1 (11734310_a_at) / Fold change /veh CNN1 (11734310_a_at) / RFU VPS37D (11726825_at) / Fold change /veh VPS37D (11726825_at) / RFU C10orf10 (11716522_x_at) / Fold change /veh C10orf10 (11716522_x_at) / RFU KIR2DL2 /// KIR2DL4 /// KIR2DL5A /// KIR2DL5B /// KIR2DS1 /// KIR2DS2 /// KIR2DS3 /// KIR2DS4 /// KIR3DL3 /// KIR3DL3 /// KIR3DS1 (11738374_at) / Fold change /veh KIR2DL2 /// KIR2DL4 /// KIR2DL5A /// KIR2DL5B /// KIR2DS1 /// KIR2DS2 /// KIR2DS3 /// KIR2DS4 /// KIR3DL3 /// KIR3DL3 /// KIR3DS1 (11738374_at) / RFU C1QL1 (11718748_at) / Fold change /veh C1QL1 (11718748_at) / RFU TMPRSS4 (11747572_a_at) / Fold change /veh TMPRSS4 (11747572_a_at) / RFU HAMP (11756126_x_at) / Fold change /veh HAMP (11756126_x_at) / RFU RNFT2 (11725882_a_at) / Fold change /veh RNFT2 (11725882_a_at) / RFU NR4A2 (11747474_a_at) / Fold change /veh NR4A2 (11747474_a_at) / RFU ABCC12 (11746883_a_at) / Fold change /veh ABCC12 (11746883_a_at) / RFU TMEM136 (11760407_x_at) / Fold change /veh TMEM136 (11760407_x_at) / RFU CLDN22 /// WWC2 (11732394_at) / Fold change /veh CLDN22 /// WWC2 (11732394_at) / RFU HLA-DPB1 (11760878_x_at) / Fold change /veh HLA-DPB1 (11760878_x_at) / RFU SPINT1 (11716480_a_at) / Fold change /veh SPINT1 (11716480_a_at) / RFU GAP43 (11754022_s_at) / Fold change /veh GAP43 (11754022_s_at) / RFU A4GNT (11735810_at) / Fold change /veh A4GNT (11735810_at) / RFU PRB3 (11715151_x_at) / Fold change /veh PRB3 (11715151_x_at) / RFU TUBB4B (11761932_at) / Fold change /veh TUBB4B (11761932_at) / RFU CAPN14 (11732068_a_at) / Fold change /veh CAPN14 (11732068_a_at) / RFU TMCC2 (11721928_a_at) / Fold change /veh TMCC2 (11721928_a_at) / RFU IRGQ (11745062_a_at) / Fold change /veh IRGQ (11745062_a_at) / RFU FAM174B (11720279_a_at) / Fold change /veh FAM174B (11720279_a_at) / RFU TMPRSS4 (11748680_a_at) / Fold change /veh TMPRSS4 (11748680_a_at) / RFU FAM212B (11763350_a_at) / Fold change /veh FAM212B (11763350_a_at) / RFU PLEKHG5 (11743358_a_at) / Fold change /veh PLEKHG5 (11743358_a_at) / RFU ZSCAN30 (11745921_a_at) / Fold change /veh ZSCAN30 (11745921_a_at) / RFU CMKLR1 (11741424_a_at) / Fold change /veh CMKLR1 (11741424_a_at) / RFU LOC101060620 /// MAPK8IP1 (11723275_at) / Fold change /veh LOC101060620 /// MAPK8IP1 (11723275_at) / RFU SPTSSB (11747773_x_at) / Fold change /veh SPTSSB (11747773_x_at) / RFU PRSS12 (11739890_at) / Fold change /veh PRSS12 (11739890_at) / RFU BIN1 (11741810_x_at) / Fold change /veh BIN1 (11741810_x_at) / RFU WNT11 (11732464_a_at) / Fold change /veh WNT11 (11732464_a_at) / RFU C10orf10 (11716521_a_at) / Fold change /veh C10orf10 (11716521_a_at) / RFU C5orf56 (11738089_at) / Fold change /veh C5orf56 (11738089_at) / RFU CYB561 (11721691_x_at) / Fold change /veh CYB561 (11721691_x_at) / RFU ANKRD19P (11752326_a_at) / Fold change /veh ANKRD19P (11752326_a_at) / RFU OR2T12 /// OR2T33 /// OR2T8 (11738714_s_at) / Fold change /veh OR2T12 /// OR2T33 /// OR2T8 (11738714_s_at) / RFU VCAN (11748164_a_at) / Fold change /veh VCAN (11748164_a_at) / RFU JSRP1 (11732532_at) / Fold change /veh JSRP1 (11732532_at) / RFU KRTAP10-11 (11738290_x_at) / Fold change /veh KRTAP10-11 (11738290_x_at) / RFU MYO3A (11730013_a_at) / Fold change /veh MYO3A (11730013_a_at) / RFU EBF3 (11725865_a_at) / Fold change /veh EBF3 (11725865_a_at) / RFU CAMK2N1 (11719241_x_at) / Fold change /veh CAMK2N1 (11719241_x_at) / RFU C5orf56 (11738088_a_at) / Fold change /veh C5orf56 (11738088_a_at) / RFU OLFML3 (11715873_a_at) / Fold change /veh OLFML3 (11715873_a_at) / RFU LOC100653217 /// NTM (11731650_a_at) / Fold change /veh LOC100653217 /// NTM (11731650_a_at) / RFU MAPK11 (11762145_a_at) / Fold change /veh MAPK11 (11762145_a_at) / RFU FIZ1 (11724087_x_at) / Fold change /veh FIZ1 (11724087_x_at) / RFU OASL (11726364_x_at) / Fold change /veh OASL (11726364_x_at) / RFU SOX15 (11748057_x_at) / Fold change /veh SOX15 (11748057_x_at) / RFU CD79A (11719716_a_at) / Fold change /veh CD79A (11719716_a_at) / RFU HIST1H1D (11736915_at) / Fold change /veh HIST1H1D (11736915_at) / RFU CASKIN2 (11723855_a_at) / Fold change /veh CASKIN2 (11723855_a_at) / RFU LOC730098 (11760151_x_at) / Fold change /veh LOC730098 (11760151_x_at) / RFU OR4N2 (11742367_at) / Fold change /veh OR4N2 (11742367_at) / RFU PRRT2 (11749266_a_at) / Fold change /veh PRRT2 (11749266_a_at) / RFU SNX32 (11753110_a_at) / Fold change /veh SNX32 (11753110_a_at) / RFU CDHR5 (11726645_a_at) / Fold change /veh CDHR5 (11726645_a_at) / RFU RCAN1 (11760418_a_at) / Fold change /veh RCAN1 (11760418_a_at) / RFU FAM167A (11723789_a_at) / Fold change /veh FAM167A (11723789_a_at) / RFU FAM26E (11764081_at) / Fold change /veh FAM26E (11764081_at) / RFU ISYNA1 (11749810_s_at) / Fold change /veh ISYNA1 (11749810_s_at) / RFU ACY1 (11761880_at) / Fold change /veh ACY1 (11761880_at) / RFU 11764098_at / Fold change /veh 11764098_at / RFU SAMD14 (11745864_x_at) / Fold change /veh SAMD14 (11745864_x_at) / RFU NPB (11741838_a_at) / Fold change /veh NPB (11741838_a_at) / RFU TMPRSS6 (11731388_a_at) / Fold change /veh TMPRSS6 (11731388_a_at) / RFU KRTAP10-2 (11738614_at) / Fold change /veh KRTAP10-2 (11738614_at) / RFU ARHGAP8 /// PRR5-ARHGAP8 (11727945_x_at) / Fold change /veh ARHGAP8 /// PRR5-ARHGAP8 (11727945_x_at) / RFU KRTAP5-7 /// NADSYN1 (11734609_at) / Fold change /veh KRTAP5-7 /// NADSYN1 (11734609_at) / RFU RASL12 (11751679_a_at) / Fold change /veh RASL12 (11751679_a_at) / RFU CDKN2B (11736163_a_at) / Fold change /veh CDKN2B (11736163_a_at) / RFU PRF1 (11729649_at) / Fold change /veh PRF1 (11729649_at) / RFU, ZNF638 /// ZNF638-IT1 / Fold change vs veh, ZNF638 /// ZNF638-IT1 / RFU, PANK3 / Fold change vs veh, PANK3 / RFU, SH3YL1 / Fold change vs veh, SH3YL1 / RFU, ZEB2 / Fold change vs veh, ZEB2 / RFU, NRIP1 / Fold change vs veh, NRIP1 / RFU, PTTG1IP / Fold change vs veh, PTTG1IP / RFU, CAPN2 / Fold change vs veh, CAPN2 / RFU, MED14 / Fold change vs veh, MED14 / RFU, SNORA58 / Fold change vs veh, SNORA58 / RFU, C1orf63 / Fold change vs veh, C1orf63 / RFU, LRRFIP1 / Fold change vs veh, LRRFIP1 / RFU, NDUFAF7 / Fold change vs veh, NDUFAF7 / RFU, SLC12A2 / Fold change vs veh, SLC12A2 / RFU, IBTK / Fold change vs veh, IBTK / RFU, ESF1 / Fold change vs veh, ESF1 / Fold change vs veh, TMEM50B / RFU, TAOK1 / Fold change vs veh, TAOK1 / RFU, ACBD3 / Fold change vs veh, ACBD3 / RFU, TMA16 / Fold change vs veh, TMA16 / RFU, RWDD3 / Fold change vs veh, RWDD3 / RFU, BCAT1 / Fold change vs veh, BCAT1 / RFU, EDEM3 / Fold change vs veh, EDEM3 / RFU, TMEM33 / Fold change vs veh, TMEM33 / RFU, WDR75 / Fold change vs veh, WDR75 / RFU, AHCTF1 / Fold change vs veh, AHCTF1 / RFU, TFRC / Fold change vs veh, TFRC / RFU, ZDHHC17 / Fold change vs veh, ZDHHC17 / RFU, NOM1 / Fold change vs veh, NOM1 / RFU, ARL8B / Fold change vs veh, ARL8B / RFU, ZBTB11 / Fold change vs veh, ZBTB11 / RFU, TAMM41 / Fold change vs veh, TAMM41 / RFU, KIAA1704 /// LOC100996395 / Fold change vs veh, KIAA1704 /// LOC100996395 / RFU, ING1 / Fold change vs veh, ING1 / RFU, TRMT61B / Fold change vs veh, TRMT61B / RFU, FUBP3 / Fold change vs veh, FUBP3 / RFU, TP53 / Fold change vs veh, TP53 / RFU, TNKS2 / Fold change vs veh, TNKS2 / RFU, ZFP14 / Fold change vs veh, ZFP14 / RFU, ACTR2 / Fold change vs veh, ACTR2 / RFU, PPP3R1 / Fold change vs veh, PPP3R1 / RFU, PIK3R1 / Fold change vs veh, PIK3R1 / RFU, HNRNPA1 / Fold change vs veh, HNRNPA1 / RFU, RNF170 / Fold change vs veh, RNF170 / RFU, ZNF28 / Fold change vs veh, ZNF28 / RFU, RNGTT / Fold change vs veh, RNGTT / RFU, OGT / Fold change vs veh, OGT / RFU, BRD1 / Fold change vs veh, BRD1 / RFU, MARS / Fold change vs veh, MARS / RFU, ZNF655 / Fold change vs veh, ZNF655 / RFU, FAHD1 / Fold change vs veh, FAHD1 / RFU, BDP1 / Fold change vs veh, BDP1 / RFU, LRRCC1 / Fold change vs veh, LRRCC1 / RFU, ARID1A / Fold change vs veh, ARID1A / RFU, ZNF146 / Fold change vs veh, ZNF146 / RFU, ZNF330 / Fold change vs veh, ZNF330 / RFU, GPN3 / Fold change vs veh, GPN3 / RFU, C9orf123 / Fold change vs veh, C9orf123 / RFU, N4BP2L2 / Fold change vs veh, N4BP2L2 / RFU, ARFIP1 / Fold change vs veh, ARFIP1 / RFU, FAM179B / Fold change vs veh, FAM179B / RFU, BCL10 / Fold change vs veh, BCL10 / RFU, UHRF1BP1L / Fold change vs veh, UHRF1BP1L / RFU, BET1 / Fold change vs veh, BET1 / RFU, CNOT2 / Fold change vs veh, CNOT2 / RFU, ZNF268 / Fold change vs veh, ZNF268 / Fold change vs veh, ZNF507 / RFU, DGCR2 / Fold change vs veh, DGCR2 / RFU, WDSUB1 / Fold change vs veh, WDSUB1 / Fold change vs veh, HSP90B1 /// MIR3652 / RFU, ADSS / Fold change vs veh, ADSS / RFU, GK / Fold change vs veh, GK / RFU, ZNF148 / Fold change vs veh, ZNF148 / RFU, TAF9 / Fold change vs veh, TAF9 / RFU, SLC1A5 / Fold change vs veh, SLC1A5 / RFU, SLMO2 / Fold change vs veh, SLMO2 / RFU, ABCC4 / Fold change vs veh, ABCC4 / RFU, LOC101060439 /// RAP1B / Fold change vs veh, LOC101060439 /// RAP1B / RFU, RFX7 / Fold change vs veh, RFX7 / RFU, GTPBP10 / Fold change vs veh, GTPBP10 / RFU, CNEP1R1 / Fold change vs veh, CNEP1R1 / RFU, BIVM-ERCC5 /// ERCC5 / Fold change vs veh, BIVM-ERCC5 /// ERCC5 / RFU, ILF3 / Fold change vs veh, ILF3 / RFU 11762660_at / Fold change /veh 11762660_at / RFU VCAN (11757783_s_at) / Fold change /veh VCAN (11757783_s_at) / RFU DDX43 (11728927_at) / Fold change /veh DDX43 (11728927_at) / RFU KRT8 (11758188_x_at) / Fold change /veh KRT8 (11758188_x_at) / RFU NKD1 (11759106_at) / Fold change /veh NKD1 (11759106_at) / RFU SRD5A1 (11742802_a_at) / Fold change /veh SRD5A1 (11742802_a_at) / RFU TPSAB1 /// TPSB2 (11721975_s_at) / Fold change /veh TPSAB1 /// TPSB2 (11721975_s_at) / RFU GSTM3 (11746129_a_at) / Fold change /veh GSTM3 (11746129_a_at) / RFU IL23R (11737362_x_at) / Fold change /veh IL23R (11737362_x_at) / RFU TMEM51 (11727254_a_at) / Fold change /veh TMEM51 (11727254_a_at) / RFU PIWIL2 (11732686_x_at) / Fold change /veh PIWIL2 (11732686_x_at) / RFU ORM1 (11744905_x_at) / Fold change /veh ORM1 (11744905_x_at) / RFU CCDC152 (11743942_at) / Fold change /veh CCDC152 (11743942_at) / RFU ECM1 (11717891_a_at) / Fold change /veh ECM1 (11717891_a_at) / RFU IL23R (11748794_a_at) / Fold change /veh IL23R (11748794_a_at) / RFU TNFAIP8L3 (11732012_x_at) / Fold change /veh TNFAIP8L3 (11732012_x_at) / RFU MBOAT4 (11741988_at) / Fold change /veh MBOAT4 (11741988_at) / RFU 11764193_at / Fold change /veh 11764193_at / RFU TMEM53 (11763286_at) / Fold change /veh TMEM53 (11763286_at) / RFU MAGEB2 (11727129_at) / Fold change /veh MAGEB2 (11727129_at) / RFU TMEM200A (11744735_a_at) / Fold change /veh TMEM200A (11744735_a_at) / RFU CCDC152 (11751479_a_at) / Fold change /veh CCDC152 (11751479_a_at) / RFU FAM211A (11726209_a_at) / Fold change /veh FAM211A (11726209_a_at) / RFU RGS16 (11746705_a_at) / Fold change /veh RGS16 (11746705_a_at) / RFU VCAN (11755009_s_at) / Fold change /veh VCAN (11755009_s_at) / RFU RHOB (11743442_s_at) / Fold change /veh RHOB (11743442_s_at) / RFU RGS16 (11720943_a_at) / Fold change /veh RGS16 (11720943_a_at) / RFU RGS16 (11720944_at) / Fold change /veh RGS16 (11720944_at) / RFU, VPS4B / Fold change vs veh, VPS4B / RFU, CREB1 / Fold change vs veh, CREB1 / RFU, DNAJC13 / Fold change vs veh, DNAJC13 / RFU, GNAQ / Fold change vs veh, GNAQ / RFU, CDK5R1 / Fold change vs veh, CDK5R1 / RFU, ZRANB3 / Fold change vs veh, ZRANB3 / RFU, CUL4A / Fold change vs veh, CUL4A / RFU, CCNY / Fold change vs veh, CCNY / RFU, UFL1 / Fold change vs veh, UFL1 / RFU, COG3 / Fold change vs veh, COG3 / RFU, DIAPH2 / Fold change vs veh, DIAPH2 / RFU, SKA2 / Fold change vs veh, SKA2 / RFU, AFF3 / Fold change vs veh, AFF3 / RFU, LMF1 / Fold change vs veh, LMF1 / RFU, IPO11 / Fold change vs veh, IPO11 / RFU, DFFB / Fold change vs veh, DFFB / RFU, FOXP1 / Fold change vs veh, FOXP1 / RFU, CARD8 / Fold change vs veh, CARD8 / RFU, STRN3 / Fold change vs veh, STRN3 / RFU, ADK / Fold change vs veh, ADK / RFU, RASSF2 / Fold change vs veh, RASSF2 / RFU, WIPF1 / Fold change vs veh, WIPF1 / RFU, LARP1B / Fold change vs veh, LARP1B / RFU, RASA1 / Fold change vs veh, RASA1 / RFU, RB1 / Fold change vs veh, RB1 / RFU, PPFIA1 / Fold change vs veh, PPFIA1 / RFU, MAT2A / Fold change vs veh, MAT2A / RFU, CCT5 / Fold change vs veh, CCT5 / RFU, WDR92 / Fold change vs veh, WDR92 / RFU, CUX1 / Fold change vs veh, CUX1 / RFU, TTC7A / Fold change vs veh, TTC7A / RFU, TMEM135 / Fold change vs veh, TMEM135 / RFU, DEPTOR / Fold change vs veh, DEPTOR / RFU, CPM / Fold change vs veh, CPM / RFU, DNAJB6 / Fold change vs veh, DNAJB6 / RFU, CACNA2D3 / Fold change vs veh, CACNA2D3 / RFU, DTX4 / Fold change vs veh, DTX4 / RFU, TFCP2 / Fold change vs veh, TFCP2 / RFU, GMCL1 /// GMCL1P1 / Fold change vs veh, GMCL1 /// GMCL1P1 / RFU, AEBP2 / Fold change vs veh, AEBP2 / RFU, SNHG1 /// SNORD22 /// SNORD25 /// SNORD26 /// SNORD27 /// SNORD28 /// SNORD29 /// SNORD31 / Fold change vs veh, SNHG1 /// SNORD22 /// SNORD25 /// SNORD26 /// SNORD27 /// SNORD28 /// SNORD29 /// SNORD31 / Fold change (Aza/veh), C12orf56 (ProbeSet 11735607_a_at) / Fold change (ACY-1035/veh), C12orf56 (ProbeSet 11735607_a_at) / Fold change (Aza/veh), FGFR1OP (ProbeSet 11751329_s_at) / Fold change (ACY-1035/veh), FGFR1OP (ProbeSet 11751329_s_at) / Fold change (Aza/veh), VPS36 (ProbeSet 11739960_a_at) / Fold change (ACY-1035/veh), VPS36 (ProbeSet 11739960_a_at) / RFU SYPL1 (11715823_x_at) / Fold change /veh SYPL1 (11715823_x_at) / RFU IGFBP7 (11715501_s_at) / Fold change /veh IGFBP7 (11715501_s_at) / RFU REEP3 (11722064_at) / Fold change /veh REEP3 (11722064_at) / RFU IGLL1 (11728026_x_at) / Fold change /veh IGLL1 (11728026_x_at): dose or concentration left out as unconfirmed
Conditions: MV-4-11 cells, 48 hours

## Nc1ncn([C@@H]2O[C@H](CO)[C@@H](O)[C@H]2O)c(=O)n1 [azacitidine]
  Fold change /veh CCDC152 (11751479_a_at): 2.85
